Reference: the METLIN SMRT retention time set (Domingo-Almenara et al. 2019)

Test: gradient 5% acetonitrile 3 min, to 50% in 2 min, to 85% in 15 min, held 3 min, 100 µL/min
Conditions: column: Zorbax Extend-C18 2.1 x 50 mm; eluents: water / acetonitrile, 0.1% formic acid
Outline: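 The mobile phases were water and acetonitrile, each with 0.1% formic acid, pumped at 100 μL/min through a Zorbax Extend-C18 column (2.1 × 50 mm, 1.8 μm). Pure standards were injected as mixtures of ~100 molecules and detected by a quadrupole time-of-flight mass spectrometer in positive and negative ionization mode. Retention time came from computationally picked adduct peaks, each inspected by hand.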

Work on `O=C(NCC1CCN(C(=O)c2ccccc2F)CC1)C(=O)Nc1ccon1` yielded an RP-LC retention time of 636 s.

Molecule `O=C(NC1CC1)C1CCN(Cc2cc3ccccc3n2Cc2cccc(Cl)c2)CC1` has an RP-LC retention time of 730 s.

`CC1(C(=O)NCc2ccccc2)CN(S(C)(=O)=O)CC(=O)N1Cc1cccc(Br)c1` (centres undefined) showed an RP-LC retention time of 815 s.

Work on `Cc1ccc(-c2nc(-c3ccc4nncn4c3)no2)cc1F` yielded an RP-LC retention time of 764 s.

Molecule `Cc1cc(OC(C)C(=O)N2CCC3(O)CCCCC3C2)c2c3c(c(=O)oc2c1)CCCC3` (centres undefined) has an RP-LC retention time of 892 s.

`C=CCN(CC=C)c1nc(-c2ccc([N+](=O)[O-])cc2)nc2ccccc12` showed an RP-LC retention time of 1060 s.

For `CCc1ccc(-c2csc(NC(=O)c3ccc(S(=O)(=O)N4CCCCC4)cc3)n2)cc1`, the RP-LC retention time was 1260 s.

With `COc1ccc2c(c1)c(CN1CCCCCCN(C)C(=O)[C@@H]3CCC[C@@H]31)cn2C` the RP-LC retention time was 721 s.

`Cc1cccc(-c2noc(CN3C(=O)COc4ccc(Cl)cc43)n2)c1` gave an RP-LC retention time of 1160 s.

Molecule `O=S(=O)(NCC1(c2cccs2)CCCC1)c1cccnc1` has an RP-LC retention time of 827 s.

Work on `CCCn1c(=O)sc2cc(S(=O)(=O)N3CCC(C(=O)Nc4cccc(C)n4)CC3)ccc21` yielded an RP-LC retention time of 844 s.

In the case of `Cc1cc(C)n(-c2ccc(C(=O)NCc3nc4ccccc4[nH]3)nn2)n1`, the RP-LC retention time is reported as 564 s.

In the case of `O=S(=O)(c1ccc(F)cc1F)N1CCCC(Cn2c(C3CC3)nc3cccnc32)C1` (centres undefined), the RP-LC retention time is reported as 766 s.

Molecule `COc1ccc(NC(=O)Nc2c(-c3ccccc3)nc3ccccn23)cc1OC` has an RP-LC retention time of 612 s.

For `Cc1ccc(Cn2cc(-c3ccncc3)cc2C(=O)NCC2CCCO2)cc1` (centres undefined), the RP-LC retention time was 654 s.

Work on `O=C(c1ccc2c(c1)OCO2)N1CCN(Cc2nc(C3CC3)cs2)CC1` yielded an RP-LC retention time of 611 s.

With `Cc1cc(C)cc(-n2ccn(Cc3nc(-c4ccc(C)cc4C)no3)c(=O)c2=O)c1` the RP-LC retention time was 1020 s.

`O=S(=O)(Nc1ccc(F)c(F)c1)c1ccccc1-c1nc(-c2ccccc2)no1` gave an RP-LC retention time of 1190 s.

`O=C(c1ccc(Cl)c(N2C(=O)CCS2(=O)=O)c1)N1CCN(c2ncccn2)CC1` showed an RP-LC retention time of 641 s.

Molecule `COC(=O)c1sccc1NC(=O)N1CCCC1c1nc(-c2cccc(Cl)c2)no1` (centres undefined) has an RP-LC retention time of 1220 s.

With `CCOC(=O)c1ccc(NC(=O)c2cnc(-c3ccc(C)cc3)nc2-c2ccncc2)cc1` the RP-LC retention time was 1050 s.

For `O=C([C@@H]1C[C@H](Oc2cccnc2)CN1C(=O)C1CCCC1)N1CCCC1`, the RP-LC retention time was 577 s.

Molecule `CCc1nc(-c2csc(S(=O)(=O)N3CCCC(C(=O)N(C)c4ccc(C)c(C)c4)C3)c2)no1` (centres undefined) has an RP-LC retention time of 1140 s.

For `CC1=NS(=O)(=O)N(Cc2ccccc2)C=C1C(=O)OCc1nc(-c2ccccc2)no1`, the RP-LC retention time was 1120 s.

`Cn1cccc1C(=O)N1CCC(COc2ccc(C(=O)N3CCCCC3)cc2)CC1` showed an RP-LC retention time of 897 s.

`COc1ccccc1N1CCN(Cc2nc3nc(C)cc(N4CCOCC4)n3n2)CC1` showed an RP-LC retention time of 602 s.

For `COc1ccc(OC)c(NC(=O)N2CCC(n3c(C(F)(F)F)nc4cccnc43)CC2)c1`, the RP-LC retention time was 895 s.

`CCc1ccc(C(=O)N2CCc3[nH]nc(C(=O)N(C)C)c3C2)cc1` showed an RP-LC retention time of 659 s.

`CC1CCCCN1CCNC(=O)c1nnc(-c2ccc(S(=O)(=O)N(C)C)cc2)o1` (centres undefined) showed an RP-LC retention time of 620 s.

With `COc1ccc(SCCc2ccncc2)cc1` the RP-LC retention time was 662 s.

With `CC1CCN(c2nc(C(=O)NCc3ccccn3)nc3c2cnn3C)CC1` the RP-LC retention time was 660 s.

Work on `CC(C)N1C(=O)c2cccnc2Sc2cc(C(=O)NC3CCCC3)ccc21` yielded an RP-LC retention time of 812 s.

With `CCc1nnc(NC(=O)c2ccc3c(c2)c(=O)cc(C)n3CC)s1` the RP-LC retention time was 571 s.

Work on `O=C(c1ccc(Cl)s1)N1CCCC(CCc2nnc(C3CCOCC3)o2)C1` (centres undefined) yielded an RP-LC retention time of 790 s.

Work on `CC(C)NC(=O)c1ccccc1OCC1CCCN(C2CCCC2)C1` (centres undefined) yielded an RP-LC retention time of 635 s.

With `Cc1noc(C)c1S(=O)(=O)N1CCC(C(=O)NCCc2csc(-c3cccs3)n2)CC1` the RP-LC retention time was 858 s.

Work on `COC(=O)c1sccc1NC(=O)N1CCCC1c1nc(-c2ccccc2)no1` (centres undefined) yielded an RP-LC retention time of 1050 s.

`O=C(CN1CCCc2nc(C3CC3)ncc2C1=O)NCC1CC1` showed an RP-LC retention time of 638 s.

Molecule `CSc1cccc(NC(=O)C2CCN(c3cnc4nccnc4c3)CC2)c1` has an RP-LC retention time of 752 s.

`CCOc1ccc(-c2nc(Cn3ccn4nc(-c5ccc(OC)cc5)cc4c3=O)c(C)o2)cc1OC` gave an RP-LC retention time of 1030 s.

Work on `CCn1ccc2sc(C)c(C(=O)N3CCC(N4CCCCC4)CC3)c2c1=O` yielded an RP-LC retention time of 566 s.

For `Cn1nccc1-c1cccc(-c2noc(C3(c4ccccc4)CC3)n2)c1`, the RP-LC retention time was 1150 s.

With `Cc1nc(CC(=O)Nc2ccc(Cl)cc2F)cs1` the RP-LC retention time was 838 s.

For `Cc1nc(COc2ccccc2)sc1C(=O)N1CCC(C(N)=O)CC1`, the RP-LC retention time was 925 s.

Molecule `O=C(Cn1nc2c3cc(Cl)ccc3ncn2c1=O)Nc1ccccc1` has an RP-LC retention time of 718 s.

Molecule `CCCNC(=O)C1CCN(C(=O)CCc2c(C)[nH]c(C(=O)OCC)c2C)CC1` has an RP-LC retention time of 679 s.

In the case of `CC(=O)c1ccc(NC(=O)c2cnn3c4c(cnc23)CCCCCC4)cc1`, the RP-LC retention time is reported as 1060 s.

Molecule `CCN1CCN(c2cc(C)c3cc(NC(=S)NCc4ccccc4OC)ccc3n2)CC1` has an RP-LC retention time of 605 s.

`CC(CCc1ccccc1)NC(=O)Cn1nc2n(c1=O)CCCC2` (centres undefined) showed an RP-LC retention time of 716 s.

`CN1C2CC(OC(=O)[C@H](CO)c3ccccc3)CC1C1OC12` (some centres undefined) gave an RP-LC retention time of 581 s.

Work on `CC1CCN(c2nn(CC(=O)NCCc3ccc(Cl)cc3)c(=O)c3ccccc23)CC1` yielded an RP-LC retention time of 1190 s.

For `Cc1cc2c(cc1CNC(=O)Cn1c(C(F)(F)F)nc3ccccc31)OCCCO2`, the RP-LC retention time was 849 s.

For `COc1nn(C)cc1C(=O)Nc1nnc(-c2cc(C)oc2C)o1`, the RP-LC retention time was 666 s.

Work on `CCc1c(C(=O)O)nnn1Cc1ccccc1C` yielded an RP-LC retention time of 728 s.

`Cc1nnc2ccc(N3CCN(C(=O)COc4ccc5c(c4)OCO5)CC3)nn12` gave an RP-LC retention time of 617 s.

In the case of `COCCNC(=O)N1CCC(OC2CCN(Cc3ccccc3)CC2)CC1`, the RP-LC retention time is reported as 571 s.

`O=S(=O)(c1cccn2cnnc12)N(Cc1ccc(F)cc1)c1ccc(F)cc1` showed an RP-LC retention time of 834 s.

Molecule `COc1cccc(C(=O)NC2CCN(c3cc(-c4cccs4)[nH]n3)C2)c1` (centres undefined) has an RP-LC retention time of 700 s.

For `Cc1ccc2c(c1)N(Cc1nc(-c3ccc(OC(F)(F)F)cc3)no1)C(=O)CO2`, the RP-LC retention time was 1210 s.

Work on `Cc1ccccc1NC(=O)Cn1c(C(F)(F)F)nc2cc3c(cc21)OCCO3` yielded an RP-LC retention time of 857 s.

`O=C(Nc1nnc(SCc2ccccn2)s1)C1CC(=O)N(c2ccc(F)cc2)C1` (centres undefined) gave an RP-LC retention time of 617 s.

`CCCCNC(=O)c1ccccc1NC(=O)C1CCN(C(=O)C(C)(C)C)CC1` gave an RP-LC retention time of 874 s.

Molecule `O=C(Nc1ccccc1)C1CCN(S(=O)(=O)c2cc(-c3noc(C4CCC4)n3)cs2)CC1` has an RP-LC retention time of 1080 s.

Work on `CC(C)CN1CCn2cc(C(=O)NCc3ccc(F)c(Cl)c3)nc2C1` yielded an RP-LC retention time of 647 s.

Work on `CCc1nn2c(CNC(=O)c3ccc(F)c(F)c3)c(-c3ccccc3)nc2s1` yielded an RP-LC retention time of 661 s.

`CCN1C(=O)Cc2ccccc2C1C(=O)N(C)Cc1ccco1` (centres undefined) gave an RP-LC retention time of 732 s.

Work on `O=C(Nc1ccc(F)cc1F)C1CCCN(C(=O)Cc2cccc3ccccc23)C1` (centres undefined) yielded an RP-LC retention time of 958 s.

For `CCc1nc2cc(-c3noc(CCc4ccc(OC)cc4)n3)ccc2o1`, the RP-LC retention time was 1130 s.

Work on `Cc1ccc(-c2nnc(N3CCC(C(=O)NCCN4CCOCC4)CC3)o2)cc1` yielded an RP-LC retention time of 614 s.

Molecule `O=C(CCNc1c(-c2ccccc2)nc2cnccn12)NCc1ccc(F)cc1` has an RP-LC retention time of 687 s.

For `CS(=O)(=O)N1CCC(C(=O)Nc2ccc(Cl)cc2)Oc2ccccc21` (centres undefined), the RP-LC retention time was 924 s.

With `O=C(NCc1[nH]nc2ccccc12)c1cccc2[nH]ccc12` the RP-LC retention time was 657 s.

Molecule `O=C(Nc1ccc(F)c(F)c1)C1CCN(C(=O)c2ncn3c2COC(c2ccccc2)C3)CC1` (centres undefined) has an RP-LC retention time of 819 s.

For `COc1ccc(CNC(=O)Cn2nc3c(Oc4ccccc4C)nccn3c2=O)cc1`, the RP-LC retention time was 957 s.

Molecule `CCOc1cccc(-c2noc(Cn3nc(-c4cccc(OC)c4)ccc3=O)n2)c1` has an RP-LC retention time of 1090 s.

For `O=C(CNC(=O)c1ccccc1)NC(C(=O)N1CCCc2ccccc21)c1ccccc1` (centres undefined), the RP-LC retention time was 816 s.

`Cc1ccc(-c2nc(NC(=O)CCc3ccccc3)sc2C)cc1` gave an RP-LC retention time of 1150 s.

For `Cc1ccc(C(=O)N2CCOc3ccc(NC(=O)C4CC4)cc3C2)s1`, the RP-LC retention time was 790 s.

In the case of `CNC(=O)CN1CCC(Oc2cc3c(Nc4cccc(Cl)c4F)ncnc3cc2OC)CC1`, the RP-LC retention time is reported as 610 s.

`O=C(NCc1csc(C2CCCN(C(=O)C3CCCCC3)C2)n1)C1CCC1` (centres undefined) gave an RP-LC retention time of 774 s.

Work on `COc1ccc(-c2nc(C3CC(=O)N(c4ccc(Cl)cc4)C3)no2)cc1` (centres undefined) yielded an RP-LC retention time of 1060 s.

For `O=C(NCc1noc(COc2ccccc2)n1)c1ccc(-c2noc(C3CC3)n2)cc1`, the RP-LC retention time was 940 s.

Work on `Cc1cc(Cl)ccc1NC(=O)c1cc(C2CC2)on1` yielded an RP-LC retention time of 1040 s.

For `Cc1oc2c(c1C(=O)Nc1ccc(F)c(F)c1)C1=NC(C)(C)CN1C=N2`, the RP-LC retention time was 655 s.

`Cc1ccc2nc(C)c(NC(=O)c3ccccc3C(F)(F)F)c(=O)n2c1` gave an RP-LC retention time of 620 s.

With `CCN1C(=O)c2c(C(=O)Nc3ccc(C)cc3)ncn2CC1(C)C(=O)NC1CCCC1` (centres undefined) the RP-LC retention time was 822 s.

Work on `CCOCCCNC(=O)c1cc2sc(Cl)cc2n1C` yielded an RP-LC retention time of 939 s.

With `Cc1nn(-c2ccc(F)cc2)c(C)c1S(=O)(=O)N1CCC(C(=O)NC(C)(C)C)CC1` the RP-LC retention time was 888 s.

Molecule `O=C(Nc1ccc(-c2nnc3n2CCCC3)cc1)c1cc(C2CC2)[nH]n1` has an RP-LC retention time of 625 s.
